# Assay results taken from ChEMBL document CHEMBL1221184, “Identifying off-target effects and hidden phenotypes of drugs in human cells” (Nat Chem Biol, 2006).
# Active and inactive are the calls of the source. The calls are words filed in the database; no cut-off is given here.
# What was measured:
# [1] = system: PC-3; experiment: Antiproliferative activity against human PC3 cells at 2 uM after 120 hrs by MTT assay relative to DMSO; format: functional
# [2] = system: PC-3; experiment: Antiproliferative activity against human PC3 cells at 10 uM after 120 hrs by MTT assay relative to DMSO; format: functional
# [3] = system: PC-3; experiment: Antiproliferative activity against human PC3 cells at 5 uM after 120 hrs by MTT assay relative to DMSO; format: functional
# [4] = system: PC-3; experiment: Antiproliferative activity against human PC3 cells at 1 uM after 120 hrs by MTT assay relative to DMSO; format: functional
# [5] = system: PC-3; experiment: Antiproliferative activity against human PC3 cells at 500 nM after 120 hrs by MTT assay relative to DMSO; format: functional
# [6] = biological target: Cyclin-dependent kinase 1 (Homo sapiens) (UniProt P06493); experiment: Effect on Cdc2 expressed in HEK293 cells assessed as effect on Cdc2:Cdc25C interaction complexes in presence of camptothecin by EYFP and/or YFP Venus fragment based reporter gene assay; format: cell-based
# [7] = system: PC-3; experiment: Antiproliferative activity against human PC3 cells at 50 uM after 120 hrs by MTT assay relative to DMSO; format: functional
# [8] = biological target: Transcription factor Jun (Homo sapiens) (UniProt P05412); experiment: Inhibition of c-Jun expressed in HEK293 cells assessed as induction of protein interaction in presence of camptothecin with Pin1 by EYFP based reporter gene assay; format: cell-based
# [9] = biological target: Cyclin-dependent kinase 1 (Homo sapiens) (UniProt P06493); experiment: Effect on Cdc2 expressed in HEK293 cells assessed as effect on Cdc2:Cdc25A interaction complexes in presence of camptothecin by EYFP and/or YFP Venus fragment based reporter gene assay; format: cell-based
# [10] = biological target: Cofilin-1 (Homo sapiens) (UniProt P23528); experiment: Effect on cofilin1 expressed in HEK293 cells assessed as effect on cofilin1; Limk2 interaction complexes in presence of camptothecin by EYFP and/or YFP Venus fragment based reporter gene assay; format: cell-based
# [11] = system: PC-3; experiment: Antiproliferative activity against human PC3 cells at 30 uM after 120 hrs by MTT assay relative to DMSO; format: functional
# [12] = biological target: Transcription factor Jun (Homo sapiens) (UniProt P05412); experiment: Activation of c-Jun expressed in HEK293 cells assessed as induction of protein interaction with Pin1 by EYFP based reporter gene assay; format: cell-based
# [13] = system: PC-3; experiment: Antiproliferative activity against human PC3 cells at 25 uM after 120 hrs by MTT assay relative to DMSO; format: functional
# Sequence of Transcription factor Jun (Homo sapiens) (P05412 whole entry, the tested form may be a part): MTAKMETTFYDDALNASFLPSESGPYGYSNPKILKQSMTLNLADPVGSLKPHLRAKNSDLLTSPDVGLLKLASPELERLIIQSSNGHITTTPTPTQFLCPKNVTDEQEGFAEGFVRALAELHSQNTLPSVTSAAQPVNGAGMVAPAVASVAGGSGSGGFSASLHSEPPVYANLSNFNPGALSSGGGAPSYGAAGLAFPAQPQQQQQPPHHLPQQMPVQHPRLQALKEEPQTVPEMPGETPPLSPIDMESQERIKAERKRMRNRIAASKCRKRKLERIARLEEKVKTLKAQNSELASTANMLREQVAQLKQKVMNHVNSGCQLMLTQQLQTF
# Sequence of Cyclin-dependent kinase 1 (Homo sapiens) (P06493 whole entry, looked up, the tested form may be a part): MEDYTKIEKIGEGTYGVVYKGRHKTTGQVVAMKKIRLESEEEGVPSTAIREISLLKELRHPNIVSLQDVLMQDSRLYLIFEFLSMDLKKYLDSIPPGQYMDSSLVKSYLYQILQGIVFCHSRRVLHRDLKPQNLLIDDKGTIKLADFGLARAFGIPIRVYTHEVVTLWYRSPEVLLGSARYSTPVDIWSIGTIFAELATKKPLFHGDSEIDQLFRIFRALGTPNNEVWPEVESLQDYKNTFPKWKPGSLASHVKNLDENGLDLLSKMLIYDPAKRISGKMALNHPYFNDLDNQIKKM
# Sequence of Cofilin-1 (Homo sapiens) (P23528 whole entry, the tested form may be a part): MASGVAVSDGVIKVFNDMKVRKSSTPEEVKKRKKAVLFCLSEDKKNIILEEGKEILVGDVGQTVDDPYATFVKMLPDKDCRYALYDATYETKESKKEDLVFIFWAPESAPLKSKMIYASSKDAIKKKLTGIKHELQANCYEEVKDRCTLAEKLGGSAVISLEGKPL
structure (smiles),measurement,setting,value
O=S(=O)(NCCNC/C=C/c1ccc(Br)cc1)c1cccc2cnccc12,fold change (FC),[1],1.028
CC[C@H](C)[C@@H](CO[C@@H](Cc1ccccc1)C(=O)N[C@@H](CCS(C)(=O)=O)C(=O)OC(C)C)NC[C@@H](N)CS,fold change (FC),[2],0.719
NC1=NC(=O)/C(=C2/CCNC(=O)c3[nH]ccc32)N1,fold change (FC),[3],1.007
CCCc1nc(C)c2c(=O)nc(-c3cc(S(=O)(=O)N4CCN(CC)CC4)ccc3OCC)[nH]n12,fold change (FC),[4],1.058
Cc1ccc(NC(=O)c2cccc(N(C)C)c2)cc1NC(=O)c1ccc(O)cc1,fold change (FC),[3],0.97
CCCc1nn(C)c2c(=O)[nH]c(-c3cc(S(=O)(=O)N4CCN(C)CC4)ccc3OCC)nc12,fold change (FC),[4],1.037
CC(C)C[C@H](NC(=O)c1ccc(NCc2c[nH]cn2)cc1-c1cccc2ccccc12)C(=O)O,fold change (FC),[3],0.966
Ic1cccc(CSc2nnc(-c3ccncc3)o2)c1,fold change (FC),[4],1.095
NS(=O)(=O)c1ccc(-n2nc(C(F)(F)F)cc2-c2ccccc2)cc1,fold change (FC),[5],1.023
Cc1ccc(S(=O)(=O)/C=C/C#N)cc1,Activity,[6],Active
same,fold change (FC),[2],0.231
CNc1cc2c(Nc3cccc(Br)c3)ncnc2cn1,fold change (FC),[4],1.022
Br.Cc1ccc(C(=O)Cn2c3c(sc2=N)CCCC3)cc1,fold change (FC),[7],0.424
COc1cc2ncc(-c3ccccc3)nc2cc1OC,fold change (FC),[3],0.94
CN1CC(=O)N2[C@H](c3ccc4c(c3)OCO4)c3[nH]c4ccccc4c3C[C@@H]2C1=O,fold change (FC),[4],1.052
C(=C\c1ccccc1)/CN1CCN(C(c2ccccc2)c2ccccc2)CC1,Activity,[8],Active
same,Activity,[6],Active
same,Activity,[9],Active
same,Activity,[10],Active
CCCCCCCCCCCCC/C=C/[C@H](O)[C@@H](CO)NC(C)=O [ACETYL CERAMIDE],fold change (FC),[2],0.787
CC(C)(C)NCC(O)c1ccc(O)c(CO)c1 (stereo unspecified) [ALBUTEROL],fold change (FC),[1],0.926
CCC1(c2ccc(N)cc2)CCC(=O)NC1=O (stereo unspecified) [AMINOGLUTETHIMIDE],fold change (FC),[11],0.979
O=c1cc(-c2ccc(O)cc2)oc2cc(O)cc(O)c12 [APIGENIN],fold change (FC),[7],0.552
CC(C)c1c(C(=O)Nc2ccccc2)c(-c2ccccc2)c(-c2ccc(F)cc2)n1CC[C@@H](O)C[C@@H](O)CC(=O)O [ATORVASTATIN],fold change (FC),[11],0.264
CC(O)(CS(=O)(=O)c1ccc(F)cc1)C(=O)Nc1ccc(C#N)c(C(F)(F)F)c1 (stereo unspecified) [BICALUTAMIDE],fold change (FC),[5],1.005
Cn1c(=O)c2c(ncn2C)n(C)c1=O [CAFFEINE],fold change (FC),[7],0.952
CC[C@@]1(O)C(=O)OCc2c1cc1n(c2=O)Cc2cc3ccccc3nc2-1 [CAMPTOTHECIN],fold change (FC),[5],0.258
Cc1ccc(-c2cc(C(F)(F)F)nn2-c2ccc(S(N)(=O)=O)cc2)cc1 [CELECOXIB],fold change (FC),[2],0.902
COCc1c(C(C)C)nc(C(C)C)c(/C=C/[C@@H](O)C[C@@H](O)CC(=O)O)c1-c1ccc(F)cc1 [CERIVASTATIN],fold change (FC),[11],0.254
CC(C)(Oc1ccc(C2CC2(Cl)Cl)cc1)C(=O)O (stereo unspecified) [CIPROFIBRATE],fold change (FC),[11],1.047
same,Activity,[12],Active
CC(C)(C)NCC(O)c1cc(Cl)c(N)c(Cl)c1 (stereo unspecified) [CLENBUTEROL],fold change (FC),[1],0.963
Clc1ccccc1C(c1ccccc1)(c1ccccc1)n1ccnc1 [CLOTRIMAZOLE],Activity,[8],Active
same,Activity,[6],Active
same,Activity,[9],Active
same,fold change (FC),[2],0.708
same,Activity,[10],Active
CN1CCN(C2=Nc3cc(Cl)ccc3Nc3ccccc32)CC1 [CLOZAPINE],fold change (FC),[1],0.977
C[C@@H]1C[C@H]2[C@@H]3CCC4=CC(=O)C=C[C@]4(C)[C@@]3(F)[C@@H](O)C[C@]2(C)[C@@]1(O)C(=O)CO [DEXAMETHASONE],fold change (FC),[5],1.127
C[C@]12CC[C@@H]3c4ccc(O)cc4CC[C@H]3[C@@H]1CC[C@@H]2O [ESTRADIOL],fold change (FC),[5],0.997
CC(C)n1c(/C=C/C(O)CC(O)CC(=O)O)c(-c2ccc(F)cc2)c2ccccc21 (stereo unspecified) [FLUVASTATIN],fold change (FC),[11],0.255
C[C@]12CC[C@@H]3c4ccc(O)cc4C[C@@H](CCCCCCCCC[S+]([O-])CCCC(F)(F)C(F)(F)F)[C@H]3[C@@H]1CC[C@@H]2O (stereo partly specified) [FULVESTRANT],fold change (FC),[5],1.068
Cc1ccc(C)c(OCCCC(C)(C)C(=O)O)c1 [GEMFIBROZIL],fold change (FC),[11],1.046
same,Activity,[12],Active
Cc1ccc(NC(=O)c2ccc(CN3CCN(C)CC3)cc2)cc1Nc1nccc(-c2cccnc2)n1 [IMATINIB],fold change (FC),[2],0.5
CC(C)NCC(O)c1ccc(O)c(O)c1 (stereo unspecified) [ISOPROTERENOL],fold change (FC),[1],0.955
CC(=O)N1CCN(c2ccc(OCC3COC(Cn4ccnc4)(c4ccc(Cl)cc4Cl)O3)cc2)CC1 (stereo unspecified) [KETOCONAZOLE],fold change (FC),[11],1.066
CC1(C)CCC2=C(O1)c1ccccc1C(=O)C2=O [LAPACHONE],fold change (FC),[1],0.243
c1ccc([C@H]2CN3CCSC3=N2)cc1 [LEVAMISOLE],fold change (FC),[2],1.028
CC[C@H](C)C(=O)O[C@H]1C[C@@H](C)C=C2C=C[C@H](C)[C@H](CC[C@@H]3C[C@@H](O)CC(=O)O3)[C@H]21 [LOVASTATIN],fold change (FC),[11],0.25
O=c1cc(N2CCOCC2)oc2c(-c3ccccc3)cccc12 [LY-294002],fold change (FC),[13],0.33
CCCCCCCC/C=C\CCCCCCCC(=O)OC[C@@H](O)COP(=O)(O)O [LYSOPHOSPHATIDIC ACID],fold change (FC),[3],1.018
CC[C@H](C)C(=O)O[C@H]1CCC=C2C=C[C@H](C)[C@H](CC[C@@H]3C[C@@H](O)CC(=O)O3)[C@H]21 [MEVASTATIN],fold change (FC),[11],0.243
Cc1cc2c(s1)Nc1ccccc1N=C2N1CCN(C)CC1 [OLANZAPINE],fold change (FC),[1],1.059
Fc1ccc([C@@H]2CCNC[C@H]2COc2ccc3c(c2)OCO3)cc1 [PAROXETINE],fold change (FC),[2],0.328
O=C1C=C2C(=CCOC2O)O1 (stereo unspecified) [PATULIN],Activity,[8],Active
same,Activity,[6],Active
same,Activity,[9],Active
same,fold change (FC),[2],0.23
same,Activity,[10],Active
CC[C@H](C)C(=O)O[C@H]1C[C@H](O)C=C2C=C[C@H](C)[C@H](CC[C@@H](O)C[C@@H](O)CC(=O)O)[C@H]21 [PRAVASTATIN],fold change (FC),[11],1.098
CC(C)NCC(O)COc1cccc2ccccc12 (stereo unspecified) [PROPRANOLOL],fold change (FC),[1],0.986
OCCOCCN1CCN(C2=Nc3ccccc3Sc3ccccc32)CC1 [QUETIAPINE],fold change (FC),[1],1.013
O=C(c1ccc(OCCN2CCCCC2)cc1)c1c(-c2ccc(O)cc2)sc2cc(O)ccc12 [RALOXIFENE],fold change (FC),[5],1.06
Cc1nc2n(c(=O)c1CCN1CCC(c3noc4cc(F)ccc34)CC1)CCCC2 [RISPERIDONE],fold change (FC),[1],1.071
CS(=O)(=O)c1ccc(C2=C(c3ccccc3)C(=O)OC2)cc1 [ROFECOXIB],fold change (FC),[2],1.08
COc1ccc(C2CNC(=O)C2)cc1OC1CCCC1 (stereo unspecified) [ROLIPRAM],fold change (FC),[13],1.065
CC(C)c1nc(N(C)S(C)(=O)=O)nc(-c2ccc(F)cc2)c1/C=C/[C@@H](O)C[C@@H](O)CC(=O)O [ROSUVASTATIN],fold change (FC),[11],0.491
C[S+]([O-])c1ccc(-c2nc(-c3ccc(F)cc3)c(-c3ccncc3)[nH]2)cc1 (stereo unspecified) [SB-203580],fold change (FC),[13],0.721
CC[C@H](CO)Nc1nc(NCc2ccccc2)c2ncn(C(C)C)c2n1 [SELICICLIB],fold change (FC),[3],0.797
CCC(C)(C)C(=O)O[C@H]1C[C@@H](C)C=C2C=C[C@H](C)[C@H](CC[C@@H]3C[C@@H](O)CC(=O)O3)[C@H]21 [SIMVASTATIN],fold change (FC),[11],0.239
CC/C(=C(\c1ccccc1)c1ccc(OCCN(C)C)cc1)c1ccccc1 [TAMOXIFEN],fold change (FC),[5],1.041
CC(C)(C)c1ccc(C(O)CCCN2CCC(C(O)(c3ccccc3)c3ccccc3)CC2)cc1 (stereo unspecified) [TERFENADINE],fold change (FC),[2],0.212
CN(C)CCOc1ccc(/C(=C(/CCCl)c2ccccc2)c2ccccc2)cc1 [TOREMIFENE],fold change (FC),[5],1.001
CC1=C(/C=C/C(C)=C/C=C/C(C)=C/C(=O)O)C(C)(C)CCC1 [TRETINOIN],fold change (FC),[3],0.969
CC(/C=C/C(=O)NO)=C\[C@@H](C)C(=O)c1ccc(N(C)C)cc1 [TRICHOSTATIN],fold change (FC),[3],0.268
Cc1onc(-c2ccccc2)c1-c1ccc(S(N)(=O)=O)cc1 [VALDECOXIB],fold change (FC),[2],1.048
COC[C@H]1OC(=O)c2coc3c2[C@@]1(C)C1=C(C3=O)[C@@H]2CCC(=O)[C@@]2(C)C[C@H]1OC(C)=O [WORTMANNIN],fold change (FC),[5],0.856
C[C@@H](N)[C@H]1CC[C@H](C(=O)Nc2ccncc2)CC1 [Y-27632],fold change (FC),[13],0.958
O=C1Cc2cc(CCN3CCN(c4nsc5ccccc45)CC3)c(Cl)cc2N1 [ZIPRASIDONE],fold change (FC),[1],1.017
NS(=O)(=O)Cc1noc2ccccc12 [ZONISAMIDE],fold change (FC),[3],1.035
